Laboratory results: patent publication US10144742B2 (Millennium Pharmaceuticals, Inc., priority 2014, dated 2018)
Read-outs that look alike come from different tables or passages of the source.

Experiments:
PC3 cells = experiment: PC3 growth inhibition (Cell-titer glo, 72 hours); type: cell-based; conditions: Homo sapiens, PC-3, PC3 cells, 72 hours, Cell-titer glo, read-out: Percent Inhibition (PC3 growth inhibition); for inhibition at 1 µM: compound concentration 1 μM; for inhibition at 1.667 µM: compound concentration 1.667 μM
Procedure: The ability of a compound of the invention to inhibit the growth of cells can be measured using a variety of methods known in the art. For example, the ability of a compound of the invention to inhibit the growth of PC3 cells can be measured. PC3 cells can be plated and incubated overnight under CO2. For each measurement, a compound of the invention (or vehicle e.g., DMSO) can be diluted with AIM serum free medium and added to the cell plate. The cell plate can then be incubated for 72 h under CO2. Cell-titer glo solution can be added and the plates can be incubated protected from light and the amount of luminescences can be measured. Concentration response curves can be generated by calculating the luminescence increase in test compound treated samples relative to DMSO-treated controls. Percentage remaining viability values at a single concentration can be measured. Growth inhibition (GI50) or cell viability (LD50) values can be determined from those curves.
Compounds of the invention were assayed to measure PC3 growth inhibition at a concentration of 1 μM or 1.667 μM (Table 3). To measure PC3 growth inhibition, PC3 cells that were maintained in PRMI1640 growth medium (Life Technologies; Cat. No. 11875) at 37° C. under 5% CO2 are trypsinized and diluted at a density of 8×10^4 cells/ml, 25 ul per well of cells and plated in 384-well black tissue culture plate. The cells are incubated overnight at 37° C. under 5% CO2. For each measurement, a test compounds or vehicle control (DMSO) are diluted with AIM serum free medium and added to the cell plate. Incubate for 72 hours at 37° C. under 5% CO2. 25 μl Cell-titer glo solution (Promega; Cat. No. G8462) is added and the cell plates are incubated for 10 minutes protected from light. The luminescence is measured. Concentration response curves are generated by calculating the luminescence increase in test compound-treated samples relative to DMSO-treated controls. Percentage remaining viability values at a single concentration, growth inhibition (GI50) or cell viability (LD50) values are determined from those curves. One skilled in the art will appreciate that these values are subject to experimental variation.

hNAMPT protein = hNAMPT protein (Homo sapiens (Human), UniProt P43490); experiment: NAMPT enzyme assay (TR-FRET/HTRF, BodiPY ligand, anti 6His-Tb); type: binding; conditions: for IC50: NAMPT IC50 range class, read-out: IC50; for inhibition at 1 µM: read-out: Percent Inhibition
hNAMPT protein, sequence (P43490 whole entry): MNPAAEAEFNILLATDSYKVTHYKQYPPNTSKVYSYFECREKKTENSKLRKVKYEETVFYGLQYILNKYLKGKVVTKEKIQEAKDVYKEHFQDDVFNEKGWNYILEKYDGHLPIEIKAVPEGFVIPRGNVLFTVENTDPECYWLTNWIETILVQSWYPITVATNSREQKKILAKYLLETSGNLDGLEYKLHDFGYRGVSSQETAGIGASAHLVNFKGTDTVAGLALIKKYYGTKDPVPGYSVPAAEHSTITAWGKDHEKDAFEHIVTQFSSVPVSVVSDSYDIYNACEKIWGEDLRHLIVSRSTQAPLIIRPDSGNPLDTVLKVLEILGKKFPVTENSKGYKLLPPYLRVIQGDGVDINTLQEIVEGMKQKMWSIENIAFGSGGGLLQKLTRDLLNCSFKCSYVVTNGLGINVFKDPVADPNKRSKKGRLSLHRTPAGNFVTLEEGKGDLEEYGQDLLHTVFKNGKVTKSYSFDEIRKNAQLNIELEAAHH
From the text: As discussed above, the invention provides compounds that are useful as inhibitors of the enzyme NAMPT. The NAMPT inhibition of a compound of the invention can be measured using a variety of methods known in the art. For example, the ability of a compound of the invention to inhibit NAMPT enzyme activity can be measured using a homogeneous time resolved fluorescence (HTRF) assay using hNAMPT protein and anti 6His-Tb in buffer treated with a compound of the invention (or control e.g., DMSO) and BodiPY ligand. The TR-FRET signal can be measured using a high throughput microplate reader (e.g., Pherastar). Excitation can be carried out at 320 nm. The percent inhibition value at a single concentration of compound of the invention can be calculated relative to a control treated sample. A concentration response curve can be generated for each compound of the invention and the curve fitted to generate an IC50 value. […] Cat. No. […] To this solution is added test compounds or vehicle control (DMSO) and BodiPY ligand (structure below). The plate is shaken for 1-2 min, sealed and incubated for 1 hour at rt in the dark. The TR-FRET signal is measured using BMG Pherastar (Lanthascreen protocol on BMG Pherastar). Excitation was carried out at 320 nm, and the ratio of emission of BodiPY (520 nm) to terbium (486 nm) was determined. Concentration response curves are generated by calculating the excitation increase in test compound-treated samples relative to DMSO-treated controls. For the assay method described above, test compound percent inhibition values at a single concentration are calculated relative to control (DMSO) treated samples. Compound concentration response curves are fitted to generate IC50 values from those curves. One skilled in the art will appreciate that these values generated either as percentage inhibition at a single concentration or IC50 values are subject to experimental variation.

SMILES | inhibition at 1 µM (PC3 cells) | IC50 (hNAMPT protein) | inhibition at 1 µM (hNAMPT protein; compound concentration 1 μM) | inhibition at 1.667 µM (PC3 cells) | inhibition at 1.852 µM (PC3 cells; compound concentration 1.852 μM) | inhibition at 1 µM (hNAMPT protein)
O=C(NCCCc1cccnc1)c1ccc2nc(-c3ccc(F)cc3)c(-c3ccc(F)cc3)nc2c1 [Compound I-32, 2,3-bis(4-fluorophenyl)-N-[3-(pyridin-3-yl)propyl]quinoxaline-6-carboxamide] | -5% | 100 to 500 nM | 78% | – | – | –
Cn1cnc2c1CN(C(=O)c1ccc3nc(-c4ccc(F)cc4)c(-c4ccc(F)cc4)nc3c1)CC2 [Compound I-33, [2,3-bis(4-fluorophenyl)quinoxalin-6-yl](3-methyl-3,4,6,7-tetrahydro-5H-imidazo[4,5-c]pyridin-5-yl)methanone] | 92% | 2000 to 10000 nM | 20% | – | – | –
C[C@@H]1CN(c2nc3cc(C(=O)NCCCn4ccnc4)ccc3nc2-c2ccccc2)C[C@H](C)O1 [Compound I-34, cis-3-[(2R,6S)-2,6-dimethylmorpholin-4-yl]-N-[3-(1H-imidazol-1-yl)propyl]-2-phenylquinoxaline-6-carboxamide] | -6% | 1000 to 2000 nM | 47% | – | – | –
O=C(NCCCc1c[nH]cn1)c1ccc2nc(N3CCOCC3)c(-c3ccc(F)cc3)nc2c1 [Compound I-35, 3-(4-fluorophenyl)-N-[3-(1H-imidazol-4-yl)propyl]-2-(morpholin-4-yl)quinoxaline-6-carboxamide] | – | < 100 nM | 90% | 2% | – | –
COc1ccccc1-c1nc2cc(C(=O)NCCCn3ccnc3)ccc2nc1-c1ccccc1 [Compound I-36, N-[3-(1H-imidazol-1-yl)propyl]-3-(2-methoxyphenyl)-2-phenylquinoxaline-6-carboxamide] | 1% | 100 to 500 nM | 51% | – | – | –
O=C(NCCCn1ccnc1)c1ccc2nc(N3CC4CC3CO4)c(-c3ccccc3)nc2c1 (stereo not drawn) [Compound I-37, N-[3-(1H-imidazol-1-yl)propyl]-2-(2-oxa-5-azabicyclo[2.2.1]hept-5-yl)-3-phenylquinoxaline-6-carboxamide] | -6% | 500 to 1000 nM | 65% | – | – | –
Cn1cnc2cc(-c3nc4ccc(C(=O)NCCCn5ccnc5)cc4nc3-c3ccccc3)ccc21 [Compound I-38, N-[3-(1H-imidazol-1-yl)propyl]-2-(1-methyl-1H-benzimidazol-5-yl)-3-phenylquinoxaline-6-carboxamide] | -8% | < 100 nM | 94% | – | – | –
O=C(NCCCc1ncc[nH]1)c1ccc2nc(N3CCOCC3)c(-c3ccc(F)cc3)nc2c1 [Compound I-39, 3-(4-fluorophenyl)-N-[3-(1H-imidazol-2-yl)propyl]-2-(morpholin-4-yl)quinoxaline-6-carboxamide] | – | < 100 nM | 97% | 2% | – | –
O=C(NCCCn1ccnc1)c1ccc2nc(-c3ccccc3)c(-c3cncnc3)nc2c1 [Compound I-41, N-[3-(1H-imidazol-1-yl)propyl]-2-phenyl-3-(pyrimidin-5-yl)quinoxaline-6-carboxamide] | 5% | 2000 to 10000 nM | 17% | – | – | –
O=C(NCCCc1nccs1)c1ccc2nc(N3CCC(N4CCOCC4)CC3)c(-c3ccc(F)cc3)nc2c1 [Compound I-42, 3-(4-fluorophenyl)-2-[4-(morpholin-4-yl)piperidin-1-yl]-N-[3-(1,3-thiazol-2-yl)propyl]quinoxaline-6-carboxamide] | – | < 100 nM | 96% | > 99% | – | –
O=C(NCCc1ccc2[nH]cnc2c1)c1ccc2nc(-c3ccc(F)cc3)c(-c3ccc(F)cc3)nc2c1 [Compound I-43, N-[2-(1H-benzimidazol-5-yl)ethyl]-2,3-bis(4-fluorophenyl)quinoxaline-6-carboxamide] | 16% | 2000 to 10000 nM | 23% | – | – | –
O=C(NCCCc1ncc[nH]1)c1ccc2nc(N3CCC(N4CCOCC4)CC3)c(-c3cccs3)nc2c1 [Compound I-44, N-[3-(1H-imidazol-2-yl)propyl]-2-[4-(morpholin-4-yl)piperidin-1-yl]-3-(2-thienyl)quinoxaline-6-carboxamide] | – | < 100 nM | > 99% | 33% | – | –
O=C(NCCCn1ccnc1)c1ccc2nc(-c3ccc(Cl)cc3)c(-c3ccccc3)nc2c1 [Compound I-45, 2-(4-chlorophenyl)-N-[3-(1H-imidazol-1-yl)propyl]-3-phenylquinoxaline-6-carboxamide] | -6% | 100 to 500 nM | 50% | – | – | –
COc1cccc(-c2nc3cc(C(=O)NCCCc4cccnc4)ccc3nc2N2CCC(O)CC2)c1 [Compound I-46, 2-(4-hydroxypiperidin-1-yl)-3-(3-methoxyphenyl)-N-[3-(pyridin-3-yl)propyl]quinoxaline-6-carboxamide] | – | < 100 nM | 98% | – | 2% | –
O=C(NCCCc1ccnnc1)c1ccc2nc(N3CCOCC3)c(-c3ccc(F)cc3)nc2c1 [Compound I-47, 3-(4-Fluorophenyl)-2-(morpholin-4-yl)-N-[3-(pyridazin-4-yl)propyl]quinoxaline-6-carboxamide] | – | < 100 nM | – | 33% | – | 90%
CS(=O)(=O)Nc1cccc(-c2nc3cc(C(=O)NCCCn4ccnc4)ccc3nc2-c2ccccc2)c1 [Compound I-48, N-[3-(1H-imidazol-1-yl)propyl]-3-{3-[(methylsulfonyl)amino]phenyl}-2-phenylquinoxaline-6-carboxamide] | 1% | 100 to 500 nM | 87% | – | – | –
O=C(NCCCn1ccnc1)c1ccc2nc(-c3cn[nH]c3)c(-c3ccccc3)nc2c1 [Compound I-49, N-[3-(1H-imidazol-1-yl)propyl]-3-phenyl-2-(1H-pyrazol-4-yl)quinoxaline-6-carboxamide] | 8% | 500 to 1000 nM | 56% | – | – | –
O=C(NCCCc1ncc[nH]1)c1ccc2nc(Cl)c(-c3ccc(Cl)cc3)nc2c1 [Compound I-50, 2-chloro-3-(4-chlorophenyl)-N-[3-(1H-imidazol-2-yl)propyl]quinoxaline-6-carboxamide] | – | < 100 nM | 87% | 96% | – | –
CC(=O)N1CCN(c2nc3ccc(C(=O)NCCCn4ccnc4)cc3nc2-c2ccccc2)CC1 [Compound I-51, 2-(4-acetylpiperazin-1-yl)-N-[3-(1H-imidazol-1-yl)propyl]-3-phenylquinoxaline-6-carboxamide] | -7% | 100 to 500 nM | 81% | – | – | –
COc1cccc(-c2nc3ccc(C(=O)NCCCn4ccnc4)cc3nc2-c2cccc(OC)c2)c1 [Compound I-52, N-[3-(1H-imidazol-1-yl)propyl]-2,3-bis(3-methoxyphenyl)quinoxaline-6-carboxamide] | 0% | < 100 nM | 103% | – | – | –
Cn1cncc1CCNC(=O)c1ccc2nc(-c3ccc(F)cc3)c(-c3ccc(F)cc3)nc2c1 [Compound I-53, 2,3-bis(4-fluorophenyl)-N-[2-(1-methyl-1H-imidazol-5-yl)ethyl]quinoxaline-6-carboxamide] | -6% | 100 to 500 nM | 77% | – | – | –
